Laboratory results: patent publication US11938218B2, “High density peptide polymers” (The Regents of the University of California, priority 2014, dated 2024)
Ends that are not written are not given here. * marks the point of attachment. NorAha = N-(hexanoic acid)-cis-5-norbornene-exo-dicarboximide, O=C1[C@@H]2[C@H](C(=O)N1CCCCCC(=O)*)[C@H]1C=C[C@@H]2C1; fluorescein = 5(6)-carboxyfluorescein

How the values were obtained:
[1] = system: trypsin, chymotrypsin and Pronase; assay: RP-HPLC analysis of CPP proteolysis (intact material after protease treatment); assay type: in vitro ADME; settings: 1 μM protease, 20 min
Description: The extent of proteolytic degradation of the Tat peptide, polymer and particle by trypsin (Gibco Life Tech., cat. #15090-046), a-chymotrypsin (Fisher Scientific, cat. #ICN1522722) and Pronase (Roche, cat. #10165921001) was assessed by comparison of chromatograms in RP-HPLC. I n these experiments, the material at the indicated concentration was incubated with each protease (at 1 μM) for 20 min, and then the enzymes were heat denatured at 65° C. for 15 min, and the solution was immediately injected onto an analytical RP-HPLC. […] Note that the standard curves for the polymer and particle will be biased due to the fact that after cleavage, the polymer backbone and fluorophore should remain intact, and will comprise part of the measured peak area.
Tat-containing materials, at the same concentration used in flow cytometery and confocal microscopy studies described above (2.5 M), were challenged for 20 min with various proteases at high enzyme concentration (˜1 M) prior to determining the extent of proteolytic cleavage and residual bioactivity. Such activity was assayed by three separate methods: reverse-phase high-performance liquid chromatography (RP-HPLC), flow cytometry, and confocal microscopy. […] The bioactivity of enzymatically digested materials was then assessed in cellular assays by both flow cytometry and confocal microscopy.

chymotrypsin = chymotrypsin (Bos taurus, UniProt P00766); assay: Time course of chymotrypsin treatment assayed by RP-HPLC; settings: after 20 minutes of incubation with chymotrypsin (1 μM)
HeLa cells [2] = assay: Cellular uptake in HeLa cells by flow cytometry (Tat, Arg8, guanidinium materials and controls); assay type: cell-based; settings: 30 min incubation, DMEM with 10% FBS
HeLa cells [3] = assay: CellTiter-Blue cell viability assay, 72 hrs; settings: for LD50: data fit to the Hill equation
Description: The cytotoxicity of materials was assessed using the CellTiter-Blue® assay (Promega, cat #G8081), which measures the metabolic reduction of resazurin to resorufin via fluorescence. For these studies, HeLa cells were plated at a density of 3,500 cells per well of a 96-well plate 18 hrs prior to treatment. Materials dissolved in DPBS at 10× the desired concentrations were added to the wells along with a 10% DMSO positive control. Cells were incubated for 72 hrs at 37° C. Note that concentration for all toxicity measurements is with respect to peptide concentration to ensure that all peptides and polymers are fairly compared with respect to their therapeutic components. […] The medium was removed and 80 μL of fresh medium lacking phenol red was added. To this was added 20 μL of the CellTiter-Blue® reagent and the cells were then incubated for 2 hrs prior to measuring fluorescence using 560 nm excitation and 590 nm emission. The fluorescence measurements were corrected for background fluorescence from the CellTiter-Blue® reagent by subtracting the fluorescence reading of wells treated with the reagent in the absence of cells. Fluorescence values were then referenced as a percentage of the value obtained for the DPBS vehicle control.

HeLa cells [4] = assay: Cellular uptake in HeLa cells by flow cytometry (GSGSG-derived and KLA polymers); assay type: cell-based; settings: 2.5 μM with respect to fluorophore, 30 min
Description: HeLa cells were plated at a density of 90,000 cells per well of a 24-well plate 18 hrs prior to treatment with the material of interest. Materials dissolved in Dulbecco's Phosphate Buffered Saline (DPBS without Ca2+ or Mg2+; Corning Cellgro, cat. #21-031-CM) at 10× the desired concentration (where concentration is with respect to fluorophore concentration to ensure propare comparison of each molecular transporter) were added to the wells and the plates were incubated for 30 min at 37° C. The medium was then removed and the cells were washed 2× with DPBS and then incubated 3× for five minutes each with heparin (0.5 mg/mL in DPBS; Affymetrix, cat. #16920) to remove any membrane-bound, non-internalized material, and finally rinsed again with DPBS. The cells were then trypsinized (0.25% trypsin in DPBS; Gibco Life Tech., cat. #15090-046) for 10 min, cold medium was added, and the cells were transferred to Eppendorfs. The suspended cells were centrifuged to pellets and then resuspended in a minimal amount of cold DPBS. Flow cytometry data (10,000 events on three separate cultures) was then acquired.

HeLa cells [5] = assay: Pharmacological and thermal probes of cellular uptake mechanisms by flow cytometry; assay type: cell-based; settings: dynasore 80 μM, MβCD 9.5 mM, 4° C.
Description: HeLa cells were plated at a density of 90,000 cells per well of a 24-well plate 18 h prior to treatment. Materials dissolved in Dulbecco's Phosphate Buffered Saline (DPBS without Ca^2+ or Mg^2+; Corning Cellgro, cat. #21-031-CM) at 10× the desired concentration were added to the wells, and the plates were incubated for 30 min at 37° C. The medium was then removed, and the cells were washed twice with DPBS and then incubated three times for 5 min with heparin (0.5 mg/mL in DPBS; Affymetrix, cat. #16920), and finally rinsed again with DPBS. The cells were then trypsinized (0.25% trypsin; Gibco Life Tech., cat. #15090-046) for 10 min, cold medium was added, and the cells were transferred to Eppendorfs, centrifuged to pellets and then resuspended in a minimal amount of cold DPBS. Fluorescence activated cell sorting data (10000 events on three separate cultures) was acquired on an Accuri C6 flow cytometer set to default “3 blue 1 red” configuration with standard optics and slow fluidics (14 μL/min). […] The cells were then incubated, prepared and analyzed by flow cytometry as described above. […] Data is reported as the normalized mean fluorescence, which are the mean fluorescence yielded by the material/the mean fluorescence from the vehicle control. […]

HeLa cells [6] = assay: Live-cell confocal microscopy (GSGSG-derived and KLA polymers); assay type: cell-based; settings: 2.5 μM with respect to fluorophore
[7] = system: CC(C)C[C@H](NC(=O)[C@H](Cc1c[nH]cn1)NC(=O)[C@H](C)NC(=O)[C@@H]1CCCN1C(=O)[C@H](CCCNC(=N)N)NC(=O)[C@H](CCC(=O)NCCNc1cccc2c(S(=O)(=O)O)cccc12)NC(=O)CN1C(=O)[C@@H]2[C@H](C1=O)[C@H]1C=C[C@@H]2C1)C(=O)N[C@@H](CCCNC(=N)N)C(=O)N[C@@H](CC(=O)O)C(=O)N[C@@H](CO)C(=O)NCC(=O)N[C@@H](CCCCNC(=O)c1ccc(N=Nc2ccc(N(C)C)cc2)cc1)C(=O)NCC(=O)N[C@@H](CO)C(=O)NCC(=O)N[C@@H](CO)C(=O)NCC(N)=O; assay: purified protein, by the assay type; settings: other: Michaelis-Menten plot, cleavage by MT1-MMP; pH 7.4
[8] = 72 hrs, concentration with respect to peptide

For N=C(N)NCCC[C@H](NC(=O)[C@H](CCCNC(=N)N)NC(=O)[C@H](CCCNC(=N)N)NC(=O)[C@H](CCC(N)=O)NC(=O)[C@H](CCCNC(=N)N)NC(=O)[C@H](CCCNC(=N)N)NC(=O)[C@H](CCCCN)NC(=O)[C@H](CCCCN)NC(=O)[C@H](CCCNC(=N)N)NC(=O)CNC(=O)[C@H](Cc1ccc(O)cc1)NC(=O)[C@@H](N)CCCCNC(=O)c1ccc2c(c1)C(=O)OC21c2ccc(O)cc2Oc2cc(O)ccc21)C(N)=O [Tat peptide], the “proteolysis by RP-HPLC after protease treatment (in words)” value [1] was “complete consumption” and the “material remaining, of the starting concentration” value (chymotrypsin) was “less than 10%”.

In the case of “Arg8 polymer: fluorescein end-labeled ROMP homopolymer of NorAha-Arg8 monomer, DP 8, deprotected (NorAha-RRRRRRRR-NH2; also: ROMP homopolymer, DP 8, fluorescein end label on polymer)”, the “cellular uptake by flow cytometry (in words)” value (“cellular uptake” for short) (HeLa cells [2]) is reported as “responses similar to those of the guanidinium polymer”.

GSGSG56-b-OEG28 [GSGSG, m ~60] was tested, and the “cytotoxicity (in words)” value (HeLa cells [3]; at concentrations up to 1 mM) was “No cytotoxicity”.

With GSGSGKK61-b-OEG30 [GSGSGKK, m ~60] the “cytotoxicity (in words)” value (HeLa cells [3]; at concentrations up to 1 mM) was “No cytotoxicity”.

In the case of “GSGSGR71-b-OEG26 (also: ROMP block copolymer, Arg block DP 71, OEG block DP 26) [GSGSGR, m ~60]”, the “cellular uptake” value (HeLa cells [4]) is reported as “better intracellular penetration”.

For “GSGSGRR57-b-OEG13 (not fully specified; also: ROMP polymer backbone, 57 repeats of peptide, OEG block, 13 units) [GSGSGRR, m ~60]”, the “cellular uptake” value (HeLa cells [4]) was “better intracellular penetration” and the “cytotoxicity (in words)” value (HeLa cells [3]; at concentrations up to 1 mM) was “No cytotoxicity”.

With “K(5/6-Flu)RRRRRRRR-NH2 (K(fluorescein)RRRRRRRR-NH2) [Arg8 peptide, fluorescein-labeled canonical cell penetrating peptide Arg8]” the “effect of pharmacological and thermal inhibition on flow cytometry readings” value (HeLa cells [5]) was “only a small effect”.

Molecule KLA6 [KLA full length, m ~5] has an LD50 (HeLa cells [3]; [8]) of 12.5 µM.

KLA11 [KLA full length, m ~10] showed an LD50 (HeLa cells [3]; [8]) of 25 µM.

Work on KLA14 [KLA full length, m ~15] yielded an LD50 (HeLa cells [3]; [8]) of 30 µM.

“KLA(fragment)11 (KLAKLAK; also: ROMP polymer, 11 repeats) [KLA fragment, m ~10]” was tested, and the “cellular uptake” value (HeLa cells [4]) was “ability to enter cells”, the “internalization and localization by live-cell confocal microscopy (in words)” value (HeLa cells [6]) was “a mixture of diffuse and punctate fluorescence” and the “cytotoxicity (in words)” value (HeLa cells [3]; [8]) was “negligible toxicity”.

“KLAKLAKKLAKLAK (KLAKLAKKLAKLAK-NH2; also: fluorescein-lysine, position not given here) [KLA peptide, reference compound]” was tested, and the “cellular uptake” value (HeLa cells [4]) was “indistinguishable from that of the vehicle control” and the “cytotoxicity (in words)” value (HeLa cells [3]; [8]) was “no cytotoxicity was detected”.

MT1-MMP (Homo sapiens) was tested, and the Km [7] was 11 µM and the kcat/Km [7] was 8670 M⁻¹ s⁻¹.

For R52-b-OEG20 [R control, m ~60], the “internalization and localization by live-cell confocal microscopy (in words)” value (HeLa cells [6]) was “a mixture of diffuse and punctate fluorescence”.
